# According to patent US8962576B2, “Compositions and method for improving endothelial function and cardiovascular health” (Natreon, Inc., priority 2012, dated 2015):
# Where “and” joins values, the source holds several entries; their conditions need not be identical. Identical values can stand only once.
# Assays:
# Type 2 Diabetic Subjects [1] = assay: Endothelial function: reflection index (RI), salbutamol challenge test, study (a); format: in vivo, human; conditions: Sensoril or Capros 250 mg twice daily, Atorvastatin 10 mg at night; for Abs Change in RI(%) Post Salbutamol challenge: n = 10
# Excerpt: Procedure for Assessment of Endothelial Function by Determination of Reflection Index (RI).
# A salbutamol (albuterol) challenge test employing digital volume plethysmography was used to assess endothelial function as reported by Chowienczyk et al., “Photoplethysmographic assessment of pulse wave reflection: blunted response to endothelium dependant beta 2-adrenergic vasodilation in type 2 diabetes mellitus,” J. Am. Coll. Cardiol. (1999 December) 34(7):2007-14; and Naidu, et al., “Comparison of two β2 adrenoceptor agonists by different routes of administration to assess human endothelial function,” Indian J. Pharmacol. (2007) 39:168-9. The patients were examined in supine position after 5 minutes of rest. A digital volume pulse (DVP) was obtained using a photo plethysmograph (Pulse Trace PCA2, PT200, Micro Medical, Gallingham, Kent, UK) transmitting infrared light at 940 nm, placed on the index finger of the right hand. The signal from the plethysmograph was digitized using a 12 bit analogue to digital converter with a sampling frequency of 100 Hz. DVP waveforms were recorded over 20 second period and the height of the late systolic/early diastolic portion of the DVP was expressed as a percentage of the amplitude of the DVP to yield the reflection index (RI), per the procedure described in detail by Millasseau et al., “Determination of age related increases in large artery stiffness by digital pulse contour analysis,” Clinical Science (2002) 103: 371-377. Three DVP recordings were taken, and measurements of reflection index (RI) were calculated and the mean value was determined. Patients were then administered 400 μg of salbutamol by inhalation. After 15 minutes three measurements of RI were obtained again and the difference in mean RI before and after administration of salbutamol was used for assessing endothelial function. A change of ≦6% in RI post-salbutamol was considered as endothelial dysfunction.
# Type 2 Diabetic Subjects [2] = assay: Lipid profile, study (a), 12 weeks treatment; format: in vivo, human; conditions: Sensoril or Capros 250 mg twice daily, Atorvastatin 10 mg at night, n = 10
# Method: Study (a) design. Patients of either sex, aged 18-75 years, fasting plasma glucose of ≧110 mg/dL, a glycosylated hemoglobin (HbA1c) between 7% and 10% and taking stable doses of anti-diabetic treatment for the past 8 weeks prior to the screening visit; and having endothelial dysfunction defined as ≦6% change in reflection index (RI) on post salbutamol challenge test were included in the study. Patients with severe uncontrolled hyperglycaemia, uncontrolled hypertension, cardiac arrhythmia, impaired hepatic or renal function, history of malignancy or stroke, smoking, chronic alcoholism, any other serious disease requiring active treatment and treatment with any other herbal supplements, were excluded from the study. Pregnant and lactating women were also excluded.
# All the eligible subjects were randomized to receive either one of the four treatments for duration of 12 weeks. There were ten (10) subjects per group. […] Subjects were asked to revisit for follow up at 4, 8 and 12 weeks of therapy. At each visit they were evaluated for efficacy and safety. Pharmacodynamic evaluation for endothelial function was conducted at every visit. Blood samples were collected for evaluation of biomarkers before and at the end of treatment. Safety lab investigations were conducted before and at the end of the study and as and when required in case of any adverse drug reaction (ADR). Subjects were examiner and/or surveyed for the presence of ADR and the same was recorded in the case report form. Compliance was assessed by pill count method.
# All the subjects had undergone complete physical examination, safety lab evaluations at baseline, i.e., prior to treatment, and at the end of the treatment. Samples were collected after an overnight fast of 12 hrs after the last dose of medication for determination of haemoglobin level, glycosylated hemoglobin (HbA1c), urea and creatinine levels, liver function, and lipid profile (total cholesterol, high density lipoprotein cholesterol (HDL-C), and low density lipoprotein cholesterol (LDL-C)). Plasma glucose, liver function test, blood urea, serum creatinine and HbA1c were measured using appropriate standard techniques.
structure (smiles),measurement,setting,value
CC(C)c1c(C(=O)Nc2ccccc2)c(-c2ccccc2)c(-c2ccc(F)cc2)n1CC[C@@H](O)C[C@@H](O)CC(=O)O [Atorvastatin],Abs Change in RI(%) Post Salbutamol challenge,"Type 2 Diabetic Subjects [1]; Post treatment, 12 weeks",−11.04% and −11.04 ± 5.48 %
same,Abs Change in RI(%) Post Salbutamol challenge,Type 2 Diabetic Subjects [1]; Pre treatment,−2.45% and −2.45 ± 0.64%
same,Mean % change in Abs Change in RI (%) Post Salbutamol challenge,Type 2 Diabetic Subjects [1]; after 12 weeks of treatment,336.1 ± 235.2%
same,HDL-C,"Type 2 Diabetic Subjects [2]; Post treatment, 12 weeks",48.2±6.01 mg/dL and 48.2 ± 6.01$ mg/dL
same,LDL-C,"Type 2 Diabetic Subjects [2]; Post treatment, 12 weeks",87.6 ± 19.07 mg/dL
same,Total Cholesterol,"Type 2 Diabetic Subjects [2]; Post treatment, 12 weeks",146 ± 24.52 mg/dL
same,Triglycerides,"Type 2 Diabetic Subjects [2]; Post treatment, 12 weeks",102.8 ± 40.61 mg/dL
same,HDL-C,Type 2 Diabetic Subjects [2]; Pre treatment,42.77 ± 6.13 mg/dL
same,LDL-C,Type 2 Diabetic Subjects [2]; Pre treatment,133.2 ± 38.09 mg/dL
same,Total Cholesterol,Type 2 Diabetic Subjects [2]; Pre treatment,185.7 ± 36.38 mg/dL
same,Triglycerides,Type 2 Diabetic Subjects [2]; Pre treatment,169.1 ± 67.51 mg/dL
